According to ChEMBL document CHEMBL1154918, “Cytotoxic chemical constituents from the roots of Cimicifuga foetida. [corrected]” (J Nat Prod, 2010):

Legend:
Assay type in all cases: functional, cell-based
HepG2 = test: Cytotoxicity against human HepG2 cells after 72 hrs by MTT assay; details: HepG2, 72 h
MCF7 = test: Cytotoxicity against human MCF7 cells after 72 hrs by MTT assay; details: MCF7, 72 h
HT-29 = test: Cytotoxicity against human HT-29 cells after 72 hrs by MTT assay; details: HT-29, 72 h
MKN-28 = test: Cytotoxicity against human MKN28 cells after 72 hrs by MTT assay; details: MKN-28, 72 h

CC(=O)O[C@@H]1C[C@@]23C[C@@]24CC[C@H](O[C@@H]2OC[C@@H](O)[C@H](O)[C@H]2O)C(C)(C)[C@@H]4CC[C@H]3[C@]2(C)C[C@@H]3OC(C(=O)C(C)C)=C[C@@H](C)[C@@H]3[C@@]12C [ASIATICOSIDE A]
IC50 (HepG2): 4.02 µM
IC50 (MCF7): > 100 µM
IC50 (HT-29): 49.4 µM
IC50 (MKN-28): 54.8 µM

CC(=O)O[C@@H]1[C@@H](O)[C@H](O[C@H]2CC[C@]34C[C@]35CC[C@]3(C)[C@H]6[C@H](C)C[C@H]7O[C@@]6(C[C@@H]7C(C)(C)OC(C)=O)[C@H](O)[C@@]3(C)[C@@H]5CC[C@H]4C2(C)C)OC[C@H]1O
IC50 (HepG2): 0.71 µM
IC50 (MCF7): > 100 µM
IC50 (HT-29): 28.9 µM
IC50 (MKN-28): > 100 µM

C[C@@H]1C[C@H]2O[C@@]3(C[C@@H]2C(C)(C)O)[C@H](O)[C@@]2(C)[C@@H]4CC[C@H]5C(C)(C)C(=O)CC[C@@]56C[C@@]46CC[C@]2(C)[C@@H]13
IC50 (HepG2): 5.51 µM
IC50 (MCF7): > 100 µM
IC50 (HT-29): 15.4 µM
IC50 (MKN-28): 72 µM

CC(=O)O[C@@H]1C[C@@]23C[C@@]24CC[C@H](O[C@@H]2OC[C@@H](O)[C@H](O)[C@H]2O)C(C)(C)[C@@H]4CC[C@H]3[C@]2(C)[C@@H](O)[C@@]34C[C@H](C(C)(C)OC(C)=O)[C@@H](C[C@@H](C)[C@@H]3[C@@]12C)O4
IC50 (HepG2): > 100 µM
IC50 (MCF7): 47.5 µM
IC50 (HT-29): > 100 µM
IC50 (MKN-28): > 100 µM

C/C=C/C(=O)O[C@H]1[C@H](O[C@H]2CC[C@]34C[C@]35CC[C@]3(C)[C@H]6[C@H](C)C[C@H]7O[C@@]6(C[C@@H]7C(C)(C)OC(C)=O)[C@H](O)[C@@]3(C)[C@@H]5CC[C@H]4C2(C)C)OC[C@@H](O)[C@@H]1O
IC50 (HepG2): 6.37 µM
IC50 (MCF7): > 100 µM
IC50 (HT-29): 78.5 µM
IC50 (MKN-28): 53.8 µM

CC(C)(O)[C@@H]1Cc2c(cc3oc(CO)cc(=O)c3c2O)O1 [NORCIMIFUGIN]
IC50 (HepG2): 5.55 µM
IC50 (MCF7): > 100 µM
IC50 (HT-29): > 100 µM
IC50 (MKN-28): > 100 µM

CC(=O)OC(C)(C)[C@H]1C[C@@]23O[C@@H]1C[C@@H](C)[C@@H]2[C@@]1(C)CC[C@@]24C[C@@]25CC[C@H](O)C(C)(C)[C@@H]5CC[C@H]4[C@]1(C)[C@H]3O
IC50 (HepG2): 20.3 µM
IC50 (MCF7): > 100 µM
IC50 (HT-29): > 100 µM
IC50 (MKN-28): > 100 µM

CC(=O)O[C@@H]1C[C@@]23C[C@@]24CC[C@H](O)C(C)(C)[C@@H]4CC[C@H]3[C@]2(C)C[C@@H]3O[C@@]4(CC[C@@]5(C)O[C@@H]45)C[C@@H](C)[C@@H]3[C@@]12C
IC50 (HepG2): 27.7 µM
IC50 (MCF7): > 100 µM
IC50 (HT-29): 35.4 µM
IC50 (MKN-28): 82.2 µM

C/C=C/C(=O)O[C@@H]1CO[C@@H](O[C@H]2CC[C@]34C[C@]35CC[C@]3(C)[C@H]6[C@H](C)C[C@H]7O[C@@]6(C[C@@H]7C(C)(C)OC(C)=O)[C@H](O)[C@@]3(C)[C@@H]5CC[C@H]4C2(C)C)[C@H](O)[C@H]1O
IC50 (HepG2): 1.29 µM
IC50 (MCF7): > 100 µM
IC50 (HT-29): > 100 µM
IC50 (MKN-28): > 100 µM

CC(=O)O[C@@H]1[C@@H](O)[C@H](O[C@H]2CC[C@]34C[C@]35C[C@@H](OC(C)=O)[C@]3(C)[C@H]6[C@H](C)C[C@]7(C[C@H](O)[C@@]8(C)O[C@@H]78)O[C@H]6C[C@@]3(C)[C@@H]5CC[C@H]4C2(C)C)OC[C@H]1O
IC50 (HepG2): 32.1 µM
IC50 (MCF7): > 100 µM
IC50 (HT-29): 50.1 µM
IC50 (MKN-28): 53.4 µM

CC(=O)O[C@@H]1C[C@@]23C[C@@]24CC[C@H](O)C(C)(C)[C@@H]4CC[C@H]3[C@]2(C)C[C@@H]3O[C@]4(C[C@@H](C)[C@@H]3[C@@]12C)C[C@H](O)[C@@]1(C)O[C@@H]41 [ACTEINOL]
IC50 (HepG2): 2.56 µM
IC50 (MCF7): > 100 µM
IC50 (HT-29): > 100 µM
IC50 (MKN-28): > 100 µM

C[C@@H]1C[C@H]2O[C@@]3(C[C@@H]2C(C)(C)O)[C@H](O)[C@@]2(C)[C@@H]4CC[C@H]5C(C)(C)[C@@H](O[C@@H]6OC[C@H](O)[C@H](O)[C@H]6O)CC[C@@]56C[C@@]46CC[C@]2(C)[C@@H]13
IC50 (HepG2): 20.4 µM
IC50 (MCF7): > 100 µM
IC50 (HT-29): > 100 µM
IC50 (MKN-28): > 100 µM

CC(=O)O[C@@H]1C[C@@]23C[C@@]24CC[C@H](O)C(C)(C)[C@@H]4CC[C@H]3[C@]2(C)[C@@H](O)[C@@]34C[C@H](C(C)(C)O)[C@@H](C[C@@H](C)[C@@H]3[C@@]12C)O4
IC50 (HepG2): 43.1 µM
IC50 (MCF7): > 100 µM
IC50 (HT-29): > 100 µM
IC50 (MKN-28): > 100 µM

CC(=O)O[C@@H]1[C@@H](O)[C@H](O[C@H]2CC[C@]34C[C@]35C[C@@H](OC(C)=O)[C@]3(C)[C@H]6[C@H](C)C[C@@]7(CC[C@]8(C)O[C@H]78)O[C@H]6C[C@@]3(C)[C@@H]5CC[C@H]4C2(C)C)OC[C@H]1O
IC50 (HepG2): 1.41 µM
IC50 (MCF7): > 100 µM
IC50 (HT-29): 35.7 µM
IC50 (MKN-28): > 100 µM

CC(=O)O[C@@H]1CO[C@@H](O[C@H]2CC[C@]34C[C@]35CC[C@]3(C)[C@H]6[C@H](C)C[C@H]7O[C@@]6(C[C@@H]7C(C)(C)OC(C)=O)[C@H](O)[C@@]3(C)[C@@H]5CC[C@H]4C2(C)C)[C@H](O)[C@H]1O
IC50 (HepG2): 2.8 µM
IC50 (MCF7): > 100 µM
IC50 (HT-29): 26.1 µM
IC50 (MKN-28): > 100 µM
